Data published in patent US12686690B2, “Macrocyclic urea orexin receptor agonists” (Merck Sharp & Dohme LLC, priority 2020, dated 2026).

Target: T1, hOX2R (Homo sapiens, UniProt O43614)
T1 construct: expressed in transfected cells; host or cells: CHO cells (G418 selection)
T1 sequence (O43614 1-444): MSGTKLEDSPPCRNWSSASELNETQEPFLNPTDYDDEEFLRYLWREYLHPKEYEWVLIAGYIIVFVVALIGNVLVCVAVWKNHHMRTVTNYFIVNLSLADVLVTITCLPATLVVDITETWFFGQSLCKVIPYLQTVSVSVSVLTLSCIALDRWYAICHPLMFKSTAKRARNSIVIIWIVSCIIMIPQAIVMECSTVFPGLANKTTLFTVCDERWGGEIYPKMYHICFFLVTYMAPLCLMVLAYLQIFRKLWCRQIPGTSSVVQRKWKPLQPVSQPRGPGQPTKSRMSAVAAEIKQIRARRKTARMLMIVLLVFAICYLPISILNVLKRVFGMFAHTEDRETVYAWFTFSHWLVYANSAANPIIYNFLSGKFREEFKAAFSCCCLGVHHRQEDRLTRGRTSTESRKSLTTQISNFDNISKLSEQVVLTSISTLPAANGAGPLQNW
Test: hOX2R IPone assay (orexin receptor agonism)
Type: cell-based
Conditions: IPone readout; for hOX2R_Ipone max %act: maximal activation; for EC50: orexin receptor agonist, read-out: hOX2R_IPone EC50

| SMILES | hOX2R_Ipone max %act [%] | EC50 [nM] |
| --- | --- | --- |
| CCN1C(=O)NC(CCC(F)(F)F)CCOCCOc2nc(cn3ccnc23)-c2cc(ncc2OC)[C@H]1C (single isomer, unassigned) [Example 6B] | 101.5 | 0.6 |
| CCN1C(=O)NC(C)CCCCCOc2nc(cn3ccnc23)-c2cc(ncc2OC)[C@H]1C (single isomer, unassigned) [Example 9A] | 99.27 | 416 |
| CCN1C(=O)NC(C)CCCCCOc2nc(cn3ccnc23)-c2cc(ncc2OC)[C@H]1C (single isomer, unassigned) [Example 9B] | 100.9 | 6 |
| CCN1C(=O)NC(c2cscn2)CCCCCOc2nc(cn3ccnc23)-c2cccc(c2)[C@H]1C (single isomer, unassigned) [Example 19A] | 97.1 | 337 |
| CCN1C(=O)NC(c2cscn2)CCCCCOc2nc(cn3ccnc23)-c2cccc(c2)[C@H]1C (single isomer, unassigned) [Example 19B] | 94.4 | 6.6 |
| CCN1C(=O)NC(CCC(F)(F)F)COCCCOc2nc(cn3ccnc23)-c2cc(ncc2OC)[C@H]1C (single isomer, unassigned) [Example 21A] | 100.4 | 19.6 |
| CCN1C(=O)NC(CCC(F)(F)F)COCCCOc2nc(cn3ccnc23)-c2cc(ncc2OC)[C@H]1C (single isomer, unassigned) [Example 21B] | 100.3 | 0.5 |
| CCN1C(=O)NCC(C(F)(F)F)N(C)CCOc2nc(cn3ccnc23)-c2cccc(c2)[C@H]1C (single isomer, unassigned) [Example 25A] | 96.6 | 250 |
| CCN1C(=O)NCC(C(F)(F)F)N(C)CCOc2nc(cn3ccnc23)-c2cccc(c2)[C@H]1C (single isomer, unassigned) [Example 25B] | 97.81 | 173 |
| CCN1C(=O)N[C@@H](CCC(F)(F)F)CCCCOc2nc(cn3ncnc23)-c2cc(ncc2OC)C1C(F)(F)F (single isomer, unassigned) [Example 34A] | 99.9 | 541 |
| CCN1C(=O)N[C@@H](CCC(F)(F)F)CCCCOc2nc(cn3ncnc23)-c2cc(ncc2OC)C1C(F)(F)F (single isomer, unassigned) [Example 34B] | 101.1 | 16.4 |
| CCN1C(=O)N[C@@H](CCC(F)(F)F)CCCCOc2nc(cn3cc(C)nc23)-c2cc(ncc2OC)C1C(F)(F)F (single isomer, unassigned) [Example 36A] | 101 | 64 |
| CCN1C(=O)N[C@@H](CCC(F)(F)F)CCCCOc2nc(cn3cc(C)nc23)-c2cc(ncc2OC)C1C(F)(F)F (single isomer, unassigned) [Example 36B] | 101.5 | 8.9 |
| CCN1C(=O)N[C@@H](C(F)(F)F)CCCCOc2nc(cn3ccnc23)-c2cc(ncc2OC)C1C(F)(F)F (single isomer, unassigned) [Example 39A] | 97.7 | 60.5 |
| CCN1C(=O)N[C@@H](C(F)(F)F)CCCCOc2nc(cn3ccnc23)-c2cc(ncc2OC)C1C(F)(F)F (single isomer, unassigned) [Example 39B] | 97.5 | 1060 |
| CCN1C(=O)NC(CCC(F)(F)F)C(C)/C=C\COc2nc(cn3ccnc23)-c2cccc(c2)[C@H]1C (single isomer, unassigned) [Example 41A] | 100.9 | 115 |
| CCN1C(=O)NC(CCC(F)(F)F)C(C)/C=C\COc2nc(cn3ccnc23)-c2cccc(c2)[C@H]1C (single isomer, unassigned) [Example 41B] | 100.4 | 21.3 |

| SMILES | hOX2R_Ipone max %act [%] | EC50 [nM] |
| --- | --- | --- |
| CCN1C(=O)NC(CCC(F)(F)F)C(C)/C=C\COc2nc(cn3ccnc23)-c2cccc(c2)[C@H]1C (single isomer, unassigned) [Example 41C] | 98.9 | 23.4 |
| CCN1C(=O)NC(CCC(F)(F)F)C(C)CCCOc2nc(cn3ccnc23)-c2cccc(c2)[C@H]1C (single isomer, unassigned) [Example 42A] | 100.6 | 6.6 |
| CCN1C(=O)NC(CCC(F)(F)F)C(C)CCCOc2nc(cn3ccnc23)-c2cccc(c2)[C@H]1C (single isomer, unassigned) [Example 42B] | 99.1 | 156 |
| CCN1C(=O)NC(CCC(F)(F)F)C(C)CCCOc2nc(cn3ccnc23)-c2cccc(c2)[C@H]1C (single isomer, unassigned) [Example 42C] | 99.7 | 8.6 |
| CCN1C(=O)NC(CCC(F)(F)F)C(C)CCCOc2nc(cn3ccnc23)-c2cccc(c2)[C@H]1C (single isomer, unassigned) [Example 42D] | 98.8 | 3.6 |
| CCN1C(=O)NC(CCC(F)(F)F)CC(C)CCOc2nc(cn3ccnc23)-c2cccc(c2)[C@H]1C (single isomer, unassigned) [Example 48A] | 99.4 | 4.1 |
| CCN1C(=O)NC(CCC(F)(F)F)CC(C)CCOc2nc(cn3ccnc23)-c2cccc(c2)[C@H]1C (single isomer, unassigned) [Example 48B] | 99.9 | 88.8 |
| CCC1CCCCCOc2nc(cn3ccnc23)-c2cc(ncc2OC)[C@@H](C)N(CC)C(=O)N1 (single isomer, unassigned) [Example 52A] | 97 | 548 |
| CCC1CCCCCOc2nc(cn3ccnc23)-c2cc(ncc2OC)[C@@H](C)N(CC)C(=O)N1 (single isomer, unassigned) [Example 52B] | 99.5 | 4.9 |
| CCN1C(=O)NC(CC(C)C)CCCCCOc2nc(cn3ccnc23)-c2cc(ncc2OC)[C@H]1C (single isomer, unassigned) [Example 53A] | 101.5 | 55.7 |
| CCN1C(=O)NC(CC(C)C)CCCCCOc2nc(cn3ccnc23)-c2cc(ncc2OC)[C@H]1C (single isomer, unassigned) [Example 53B] | 102.3 | 0.9 |
| CCCC1CCCCCOc2nc(cn3ccnc23)-c2cc(ncc2OC)[C@@H](C)N(CC)C(=O)N1 (single isomer, unassigned) [Example 54A] | 102 | 143 |
| CCCC1CCCCCOc2nc(cn3ccnc23)-c2cc(ncc2OC)[C@@H](C)N(CC)C(=O)N1 (single isomer, unassigned) [Example 54B] | 100.7 | 1 |
| CCN1C(=O)NC(CC2CC2)CCCCCOc2nc(cn3ccnc23)-c2cc(ncc2OC)[C@H]1C (single isomer, unassigned) [Example 55A] | 99.2 | 78.9 |
| CCN1C(=O)NC(CC2CC2)CCCCCOc2nc(cn3ccnc23)-c2cc(ncc2OC)[C@H]1C (single isomer, unassigned) [Example 55B] | 101.2 | 0.6 |
| CCN1C(=O)NC(CCOC)CCCCCOc2nc(cn3ccnc23)-c2cc(ncc2OC)[C@H]1C (single isomer, unassigned) [Example 56A] | 101.7 | 32 |
| CCN1C(=O)NC(CCOC)CCCCCOc2nc(cn3ccnc23)-c2cc(ncc2OC)[C@H]1C (single isomer, unassigned) [Example 56B] | 101 | 1 |
